Data: US11214803B2, “Modulators of YAP1 expression” (Ionis Pharmaceuticals, Inc., priority 2019, dated 2022)
Strand notation (5' to 3'): a small letter for the sugar, then the base; units joined by * are phosphorothioate-linked, units joined directly phosphodiester-linked; [ ] holds rarer units or linkages, { } end groups; capitals alone tell only the bases. k = constrained ethyl (cEt); [5mC] = 5-methylcytosine; d = 2'-deoxy (DNA)

How the values were obtained:
SCC-25 cells = assay: Cell proliferation assay in SCC-25 cells, CellTiter-Glo (Example 42); format: cell-based, human; conditions: free uptake, approximately 144 hours
Procedure: (§1) Modified oligonucleotides described in the studies above were tested at various doses in tongue squamous cell carcinoma cell line SCC-25. A control oligonucleotide 792169, described herein above, was also tested.
(§2) Cultured SCC-25 cells at a density of 1000 cells/well were treated using free uptake with modified oligonucleotides diluted to concentrations described in the tables below. After approximately 144 hours, cell proliferation was measured using the luminescent cell viability CellTiter-Glo® 2.0 Assay (Promega). Results are presented in the tables below as percent control of the amount of luminescence in samples treated with modified oligonucleotides relative to untreated control cells (% UTC).

UPCI:SCC090 cells = assay: Cell proliferation assay in UPCI:SCC090 cells, CellTiter-Glo (Example 47); format: cell-based, human; conditions: free uptake, approximately 144 hours
Procedure: Modified oligonucleotides described in the studies above were tested at various doses in tongue squamous cell carcinoma cell line UPCI:SCC090. A control oligonucleotide 792169, described herein above, was also tested.
as §2, with “UPCI:SCC090” for “SCC-25”

SNU-1066 cells = assay: Cell proliferation assay in SNU-1066 cells, CellTiter-Glo (Example 44); format: cell-based, human; conditions: free uptake, approximately 144 hours
Procedure: Modified oligonucleotides described in the studies above were tested at various doses in laryngeal squamous cell carcinoma line SNU-1066. A control oligonucleotide 792169, described herein above, was also tested.
as §2, with “SNU-1066” for “SCC-25”

Yap1 mRNA [1] = assay: Yap1 mRNA in BICR56 cells, RNA analysis (Example 33); format: cell-based, human; conditions: free uptake, approximately 48 hours
Procedure: Modified oligonucleotides described in the studies above were tested at various doses in squamous cell carcinoma adherent keratinocyte cell line BICR56. A control oligonucleotide 792169 was also tested.
(§3) Cultured BICR56 cells at a density of 5000 cells per well were treated using free uptake with modified oligonucleotides diluted to concentrations described in the tables below. After approximately 48 hours, Yap1 mRNA levels were measured as previously described using the Human Yap1 primer-probe set RTS4814. Yap1 mRNA levels were normalized to actin-beta content, as measured by primer probe set RTS5002. Results are presented in the tables below as percent control of the amount of Yap1 mRNA relative to untreated control cells (% UTC).

Yap1 mRNA [2] = assay: Yap1 mRNA in SCC-15 cells, RNA analysis (Example 41); format: cell-based, human; conditions: free uptake, approximately 48 hours
Procedure: Modified oligonucleotides described in the studies above were tested at various doses in tongue squamous cell carcinoma cell line SCC-15. A control oligonucleotide 792169, described herein above, was also tested.
as §3, with “SCC-15” for “BICR56”

Yap1 mRNA [3] = assay: Yap1 mRNA in SCC-25 cells, RNA analysis (Example 42); format: cell-based, human; conditions: free uptake, approximately 48 hours
Procedure: as §1
as §3, with “SCC-25” for “BICR56”

Yap1 mRNA [4] = assay: Yap1 mRNA in Detroit-562 cells, RNA analysis (Example 38); format: cell-based, human; conditions: free uptake, approximately 48 hours
Procedure: Modified oligonucleotides described in the studies above were tested at various doses in pharynx carcinoma cell line Detroit-562. A control oligonucleotide 792169, described herein above, was also tested.
as §3, with “Detroit-562” for “BICR56”

[5] = Tolerability in CD-1 mice, body and organ weights (Example 19); format: in vivo; conditions: male CD-1 mice, 50 mg/kg s.c. twice a week for four weeks (8 treatments), end of study (day 26)
Procedure: Groups of four male CD-1 mice at 4-6 weeks of age (obtained from Charles River) were injected subcutaneously twice a week for four weeks (for a total of 8 treatments) with 50 mg/kg of modified oligonucleotides. One group of male CD-1 mice was injected with PBS. Mice were euthanized on day 26 post start of treatment (24 hrs following the final administration).
Body weights of CD-1 mice were measured at the end of the study, and the average body weight for each group is presented in the table below. Modified oligonucleotides that caused any changes in organ weights outside the expected range for modified oligonucleotides were excluded from further studies.

Substance	Antiproliferative effect (cell proliferation, luminescence) (SCC-25 cells; 0.08 μM) [% UTC]	Antiproliferative effect (cell proliferation, luminescence) (SCC-25 cells; 0.4 μM) [% UTC]	Antiproliferative effect (cell proliferation, luminescence) (SCC-25 cells; 2 μM) [% UTC]	Antiproliferative effect (cell proliferation, luminescence) (SCC-25 cells; 10 μM) [% UTC]	Antiproliferative effect (cell proliferation, luminescence) (UPCI:SCC090 cells; 0.04 μM) [% UTC]	Antiproliferative effect (cell proliferation, luminescence) (UPCI:SCC090 cells; 0.2 μM) [% UTC]	Antiproliferative effect (cell proliferation, luminescence) (UPCI:SCC090 cells; 1 μM) [% UTC]	Antiproliferative effect (cell proliferation, luminescence) (UPCI:SCC090 cells; 5 μM) [% UTC]	Antiproliferative effect (cell proliferation, luminescence) (SNU-1066 cells; 0.04 μM) [% UTC]	Antiproliferative effect (cell proliferation, luminescence) (SNU-1066 cells; 0.2 μM) [% UTC]	Antiproliferative effect (cell proliferation, luminescence) (SNU-1066 cells; 1 μM) [% UTC]	Antiproliferative effect (cell proliferation, luminescence) (SNU-1066 cells; 5 μM) [% UTC]	human Yap1 mRNA expression (Yap1 mRNA [1]; 0.04 μM) [% UTC]	human Yap1 mRNA expression (Yap1 mRNA [1]; 0.2 μM) [% UTC]	human Yap1 mRNA expression (Yap1 mRNA [1]; 1 μM) [% UTC]	human Yap1 mRNA expression (Yap1 mRNA [1]; 5 μM) [% UTC]	human Yap1 mRNA expression (Yap1 mRNA [2]; 0.04 μM) [% UTC]	human Yap1 mRNA expression (Yap1 mRNA [2]; 0.2 μM) [% UTC]	human Yap1 mRNA expression (Yap1 mRNA [2]; 1 μM) [% UTC]	human Yap1 mRNA expression (Yap1 mRNA [2]; 5 μM) [% UTC]	also measured
CGCCGATAAGGTACAC (cEt gapmer, phosphorothioate backbone, further chemistry not given here) [ION 792169, reference compound]	97	101	96	92	100	104	99	93	100	104	102	96	99	92	85	97	91	100	102	105	human Yap1 mRNA expression (Yap1 mRNA [3]; 0.08 μM): 87 % UTC; human Yap1 mRNA expression (Yap1 mRNA [3]; 0.4 μM): 87 % UTC; human Yap1 mRNA expression (Yap1 mRNA [3]; 2 μM): 89 % UTC; human Yap1 mRNA expression (Yap1 mRNA [3]; 10 μM): 86 % UTC; human Yap1 mRNA expression (Yap1 mRNA [4]; 0.04 μM): 102 % UTC; human Yap1 mRNA expression (Yap1 mRNA [4]; 0.2 μM): 102 % UTC; human Yap1 mRNA expression (Yap1 mRNA [4]; 1 μM): 94 % UTC; human Yap1 mRNA expression (Yap1 mRNA [4]; 5 μM): 99 % UTC
715487 (kA*kT*kT*dA*d[5mC]*dT*dT*d[5mC]*dA*dT*dA*dG*d[5mC]*kT*kT*kA) [compound 715487]	82	48	25	15	92	94	72	68	97	86	72	47	68	28	16	11	69	33	12	5	human Yap1 mRNA expression (Yap1 mRNA [3]; 0.08 μM): 70 % UTC; human Yap1 mRNA expression (Yap1 mRNA [3]; 0.4 μM): 32 % UTC; human Yap1 mRNA expression (Yap1 mRNA [3]; 2 μM): 16 % UTC; human Yap1 mRNA expression (Yap1 mRNA [3]; 10 μM): 11 % UTC; human Yap1 mRNA expression (Yap1 mRNA [4]; 0.04 μM): 77 % UTC; human Yap1 mRNA expression (Yap1 mRNA [4]; 0.2 μM): 29 % UTC; human Yap1 mRNA expression (Yap1 mRNA [4]; 1 μM): 10 % UTC; human Yap1 mRNA expression (Yap1 mRNA [4]; 5 μM): 5 % UTC
1198872 (TGTATGTCAGAAGAGT; chemically modified gapmer, further chemistry not given here) [compound 1198872]	–	–	–	–	–	–	–	–	–	–	–	–	–	–	–	–	–	–	–	–	Kidney weight [5]: 0.40 g; Liver weight [5]: 1.84 g; Spleen weight [5]: 0.16 g; body weight [5]: 34 g
1198439 (AGTGTATGTCAGAAGA; sugar, 5-methylcytosine, phosphorothioate modifications, further chemistry not given here) [compound 1198439]	–	–	–	–	–	–	–	–	–	–	–	–	–	–	–	–	–	–	–	–	Kidney weight [5]: 0.51 g; Liver weight [5]: 2.03 g; Spleen weight [5]: 0.25 g; body weight [5]: 36 g
1198440 (AAGTGTATGTCAGAAG; cEt, 2'-MOE, 5-methylcytosine, phosphorothioate modifications, further chemistry not given here) [compound 1198440]	56	27	20	16	101	92	75	70	89	66	58	43	40	10	7	7	39	10	4	2	human Yap1 mRNA expression (Yap1 mRNA [3]; 0.08 μM): 32 % UTC; human Yap1 mRNA expression (Yap1 mRNA [3]; 0.4 μM): 12 % UTC; human Yap1 mRNA expression (Yap1 mRNA [3]; 2 μM): 8 % UTC; human Yap1 mRNA expression (Yap1 mRNA [3]; 10 μM): 7 % UTC; Kidney weight [5]: 0.46 g; Liver weight [5]: 1.97 g; Spleen weight [5]: 0.18 g; body weight [5]: 35 g; human Yap1 mRNA expression (Yap1 mRNA [4]; 0.04 μM): 32 % UTC; human Yap1 mRNA expression (Yap1 mRNA [4]; 0.2 μM): 8 % UTC; human Yap1 mRNA expression (Yap1 mRNA [4]; 1 μM): 3 % UTC; human Yap1 mRNA expression (Yap1 mRNA [4]; 5 μM): 2 % UTC
